{"source": "patent US20130333059A1", "about": "“HOX COMPOSITIONS AND METHODS” (THE JOHNS HOPKINS UNIVERSITY, priority 2006, published 2013)", "key": {"TGFα and HB-EGF": {"tested_on": "TGFα and HB-EGF", "assay": "Immunoblot of TGFα and HB-EGF in MCF-10A-B7 cells", "format": "cell-based, human", "conditions": "0.1 μM AG1478, 24 hours"}, "MDCK-B7 cells": {"tested_on": "MDCK-B7 cells", "assay": "Matrigel invasion assay, pooled MDCK-B7 cells", "format": "cell-based, canine", "conditions": "Su5402 40 μmol/L; for invasive phenotype / invasive ability of MDCK-B7 cells: 36 hours, Bay43-9006 4 μmol/L, U0126 10 μmol/L, either inhibitor alone or in combination", "protocol": "(§1) Matrigel invasion assay. Into the Biocoat Matrigel invasion chambers (BD Biosciences) were seeded 4×10^4 cells in 2% FBS medium, and in the lower wells 10% FBS was added as the chemoattractant. After 36 hours of incubation, the filters were stained with crystal violet, and the number of cells that had penetrated through the filter was counted under ×20 magnification (10 randomly selected high-power fields). For inhibition of invasion assays, the FGF receptor inhibitor Su5402 (40 μmol/L), the MAPK/extracellular signal-regulated kinase kinase (MEK) inhibitor U0126 (10 μmol/L), and the Raf inhibitor Bay43-9006 (4 μmol/L; Calbiochem, San Diego, Calif.) were added to the medium in the top chamber at the final concentrations indicated. Ras and RhoA activation assay. Cell lysates were incubated with glutathione S-transferase (GST)-Raf-1 Ras binding domain or GST-Rhotekin RhoA binding domain agarose beads (Upstate, Charlottesville, Va.). GTP-bound Ras or RhoA that precipitated with the beads were detected by SDS-PAGE and immunoblotting with anti-Ras antibody (Santa Cruz Biotechnology) or anti-RhoA antibody (Upstate)."}, "Ras": {"tested_on": "Ras", "assay": "Ras activation assay, MDCK-B7 cells", "format": "cell-based, canine", "protocol": "as §1"}, "LTED cells": {"tested_on": "LTED cells", "conditions": "Martin La., 2005; cited from earlier work"}, "[1]": {"tested_on": "EGFR, HER2, ERα and HOXB7", "assay": "Immunoblot of EGFR, HER2, ERα, HOXB7 in long-term tamoxifen treated MCF-7 (MCF-7-TMR) cells", "format": "cell-based, human"}, "MCF-7-B7 cells [2]": {"tested_on": "MCF-7-B7 cells", "assay": "Soft agar colony formation, MCF-7-B7 cells", "format": "cell-based, human"}, "[3]": {"tested_on": "EGFR/HER2 and ERα signaling", "assay": "Immunoblot of EGFR/HER2, MAPK, ERα signaling in MCF-7-B7 cells", "format": "cell-based, human"}, "MCF-7-B7 cells [4]": {"tested_on": "MCF-7-B7 cells", "assay": "Xenograft of MCF-7-B7 cells in athymic mice", "format": "in vivo", "conditions": "absence of exogenous estrogen supplement", "protocol": "3×10^6 cells of MCF-7-vec or MCF-7-B7 were suspended in 100 μl PBS/Matrigel (1:1) and injected s.c into the female 3- to 4-week-old BALB/c nu/nu athymic mice (Harlan, Sprague Dawley, Madison, Wis.), which simultaneously received a 60-day slow release pellet containing 0.72 mg of 17β-estradiol and/or 5 mg tamoxifen (Innovative Research of America, Southfield, Mich.). Fulvestrant was dissolved in 100% ethanol and diluted in sesame oil; 5 mg was injected s.c. twice a week^20. Animals were observed once a week. At necropsy, primary tumors, liver, lung and spleen were evaluated for the presence of macroscopic tumors. Tissue samples of the primary tumor and organs were fixed in 4% paraformaldehyde and stained with H&E to assess histomorphology."}, "[5]": {"tested_on": "Her2 positive transgenic mammary tumor cells", "assay": "Sensitivity to anti-ER drugs, Her2 positive transgenic mammary tumor cells", "format": "cell-based, mouse", "conditions": "cells do not express ER"}, "[6]": {"tested_on": "Her2/Hoxb7 transgenic mouse mammary tumor cells", "assay": "Sensitivity to anti-ER drugs, Her2/Hoxb7 transgenic mouse mammary tumor cells", "format": "cell-based"}, "MCF-7-TMR cells": {"tested_on": "MCF-7-TMR cells", "assay": "Colony formation and ERE-Luc activity, MCF-7-TMR cells", "format": "cell-based, human"}, "[7]": {"conditions": "in the clinic; cited from earlier work"}, "BT474 cells": {"tested_on": "BT474 cells", "assay": "Soft agar colony formation, BT474 cells", "format": "cell-based, human", "conditions": "1 μM gefitinib and 1 μM tamoxifen"}, "ERE-luc reporter": {"tested_on": "ERE-luc reporter", "assay": "ERE-tk-Luc reporter assay, MCF-7-B7 cells", "format": "cell-based, human", "conditions": "100 nM tamoxifen, 10 nM E2, 24 h", "protocol": "Transient transfection was performed with the respective promoter-luciferase constructs. Results were normalized to the level of B-galactosidase activity in the samples. The EGFR promoter reporter plasmids were a kind gift of Dr. Alfred C. Johnson (Bethesda, Md.). ERE-tk-LUC was a generous gift from Dr. Elaine Alarid (Madison, Wis.)."}, "[8]": {"tested_on": "EGFR/HER2 and ERα signaling", "assay": "Immunoblot of EGFR/HER2, MAPK, ERα signaling in MCF-7-vec cells", "format": "cell-based, human", "conditions": "1 μM tamoxifen, estrogen deprived medium, 48 hours"}, "HOXB7 promoter region": {"tested_on": "HOXB7 promoter region", "assay": "CHIP analysis of T47D cells, HOXB7 promoter region", "format": "cell-based, human", "conditions": "1 μM tamoxifen, 45 min"}, "HOXB7, EGFR and HER2": {"tested_on": "HOXB7, EGFR and HER2", "assay": "HOXB7, EGFR, HER2 expression in T47D cells upon tamoxifen", "format": "cell-based, human"}, "[9]": {"conditions": "MCF-7 cells, 0.1 μM tamoxifen over time (0, 2, 4, 6 months)"}, "[10]": {"conditions": "MCF-7 cells, 1 μM or 0.1 μM tamoxifen for at least 6 months"}}, "note": "“Also recorded” adds a separate entry of the source.", "data": [{"smiles": "COc1cc2ncnc(Nc3cccc(Cl)c3)c2cc1OC", "note": "[AG1478]", "values": [{"measurement": "elevated expression of TGFα and HB-EGF", "setting": "TGFα and HB-EGF", "result": "significantly abrogated"}]}, {"smiles": "CNC(=O)c1cc(Oc2ccc(NC(=O)Nc3ccc(Cl)c(C(F)(F)F)c3)cc2)ccn1", "note": "[Bay43-9006]", "values": [{"measurement": "invasive phenotype / invasive ability of MDCK-B7 cells", "setting": "MDCK-B7 cells", "result": "complete suppression"}, {"measurement": "invasive phenotype / invasive ability of MDCK-B7 cells", "setting": "MDCK-B7 cells; listed as BAY 43-9006", "result": "block"}]}, {"smiles": "Cc1c[nH]c(/C=C2\\C(=O)Nc3ccccc32)c1CCC(=O)O", "note": "[Su5402]", "values": [{"measurement": "active form Ras (Ras-GTP form)", "setting": "Ras", "result": "attenuate"}, {"measurement": "invasive phenotype / invasive ability of MDCK-B7 cells", "setting": "MDCK-B7 cells", "result": "reduce"}, {"measurement": "inhibition of invasion ability of MDCK-B7 cell", "setting": "MDCK-B7 cells", "result": "~80", "unit": "%"}]}, {"smiles": "N#CC(=C(/N)Sc1ccccc1N)/C(C#N)=C(\\N)Sc1ccccc1N", "note": "[U0126]", "values": [{"measurement": "invasive phenotype / invasive ability of MDCK-B7 cells", "setting": "MDCK-B7 cells", "result": "complete suppression; also recorded: block"}]}, {"smiles": "C[C@]12CC[C@@H]3c4ccc(O)cc4C[C@@H](CCCCCCCCC[S+]([O-])CCCC(F)(F)C(F)(F)F)[C@H]3[C@@H]1CC[C@@H]2O", "note": "(stereo partly shown) [fulvestrant]", "values": [{"measurement": "sensitivity of LTED cells", "setting": "LTED cells", "result": "sensitive"}, {"measurement": "expression of EGFR and HER2", "setting": "[1]; MCF-7-TMR cells, 1 μM fulvestrant, 24 h", "result": "significantly reduced"}, {"measurement": "HOXB7 levels", "setting": "[1]; MCF-7-TMR cells, 1 μM fulvestrant, 24 h, vs vehicle", "result": "lower"}, {"measurement": "sensitivity to fulvestrant treatment in vitro", "setting": "MCF-7-B7 cells [2]; MCF-7-B7, 1 μM Fulvestrant", "result": "remained sensitive"}, {"measurement": "HOXB7-promoted colony formation in vitro", "setting": "MCF-7-B7 cells [2]; in a dose-dependent manner", "result": "reduced"}, {"measurement": "levels of the autocrine/paracrine EGFR ligands (Amphiregulin and TGFα)", "setting": "[3]; 1 μM fulvestrant, 24 h", "result": "significant reduction"}, {"measurement": "HOXB7 overexpression-related increases in EGFR and p44/42 MAPK activity", "setting": "[3]; fulvestrant treatment", "result": "reduced"}, {"measurement": "tumor formation in vivo", "setting": "MCF-7-B7 cells [4]; fulvestrant 10 mg/week", "result": "reduced"}, {"measurement": "response to treatment", "setting": "[5]", "result": "did not respond"}, {"measurement": "response to treatment", "setting": "[6]", "result": "strongly respond"}, {"measurement": "sensitivity to fulvestrant treatment in vitro", "setting": "MCF-7-TMR cells; MCF-7-TMR, 1 μM Fulvestrant", "result": "remained sensitive"}, {"measurement": "tamoxifen-relapsed / tamoxifen-resistant patients who respond", "setting": "[7]", "result": "nearly two-thirds"}]}, {"smiles": "COc1cc2ncnc(Nc3ccc(F)c(Cl)c3)c2cc1OCCCN1CCOCC1", "note": "[gefitinib]", "values": [{"measurement": "sensitivity of the cells to tamoxifen treatment", "setting": "MCF-7-B7 cells [2]; 1 μM tamoxifen in combination with 1 μM gefitinib", "result": "significantly re-sensitized"}, {"measurement": "effect on tamoxifen action in BT474 cells", "setting": "BT474 cells", "result": "dramatically converted tamoxifen from a partial agonist to a potent antagonist"}]}, {"smiles": "CC/C(=C(\\c1ccccc1)c1ccc(OCCN(C)C)cc1)c1ccccc1", "note": "[tamoxifen]", "values": [{"measurement": "attenuation of estrogen-stimulated ERE-luc reporter activity", "setting": "ERE-luc reporter", "result": "inability"}, {"measurement": "sensitivity of LTED cells", "setting": "LTED cells", "result": "refractory"}, {"measurement": "expression of EGFR/HER2 and ERα", "setting": "[1]; [9]", "result": "concomitant increases"}, {"measurement": "levels of expression of HOXB7", "setting": "[1]; [9]", "result": "progressively increasing levels"}, {"measurement": "HOXB7 expression level", "setting": "[1]; [10]", "result": "potently elevated"}, {"measurement": "expression of EGFR, HER2 and ERα", "setting": "[1]; [10]", "result": "elevated expression"}, {"measurement": "increase of active form of HER2", "setting": "[8]", "result": "about 1.5 fold"}, {"measurement": "levels of the active form of EGFR", "setting": "[8]", "result": "reduction"}, {"measurement": "growth (colonies in soft agar)", "setting": "MCF-7-B7 cells [2]; estrogen-deprived conditions, tamoxifen 1 μM", "result": "enhanced"}, {"measurement": "sensitivity to the inhibitory effects of tamoxifen in culture", "setting": "MCF-7-B7 cells [2]; tamoxifen 1 μM, complete medium", "result": "loss of sensitivity"}, {"measurement": "binding of ERα to HOXB7 promoter region", "setting": "HOXB7 promoter region", "result": "promoted binding"}, {"measurement": "effect on the expression of Cyclin D1 and Bcl-2", "setting": "[3]; 1 μM tamoxifen, 48 hours", "result": "potent estrogen-like agonistic effect"}, {"measurement": "p44/42 MAPK activity and phosphorylation of ERα at serine 118", "setting": "[3]; 1 μM tamoxifen, 48 hours", "result": "increased"}, {"measurement": "active forms of EGFR and HER2", "setting": "[3]; 1 μM tamoxifen, estrogen deprived medium, 48 hours", "result": "significantly higher level"}, {"measurement": "activation of p44 MAPK and ER phosphorylation at Ser 118 site", "setting": "[3]; 1 μM tamoxifen, short period, MCF-7-B7", "result": "potently stimulates"}, {"measurement": "levels of active forms of EGFR and HER2", "setting": "[3]; 1 μM tamoxifen, short period, estrogen deprived", "result": "elevated levels"}, {"measurement": "effect on established tumors of MCF-7-B7 cells in nude mice", "setting": "MCF-7-B7 cells [4]; tamoxifen 83.3 μg/day", "result": "no inhibitory effect"}, {"measurement": "response to treatment", "setting": "[5]", "result": "did not respond"}, {"measurement": "response to treatment", "setting": "[6]", "result": "not responding"}, {"measurement": "resistance to tamoxifen treatment (colony formation and ERE-Luc activity)", "setting": "MCF-7-TMR cells; 100 nM tamoxifen", "result": "significant resistance"}, {"measurement": "expression of HOXB7", "setting": "HOXB7, EGFR and HER2; 1 μM tamoxifen, short-term", "result": "increased expression"}, {"measurement": "expression levels of EGFR and HER2", "setting": "HOXB7, EGFR and HER2; tamoxifen", "result": "induced"}]}]}
